This is an account of results in patent US7713994B2 (Wyeth LLC, priority 2005, dated 2010).

Read-outs that look alike come from different tables or passages of the source.

One assay relates to HCT-116. The assay can be described thus: Cytotoxicity assay (SRB), HCT-116. The conditions noted are these: HCT116 cells, SRB, read-out: In Vitro Cellular Activity IC50 HCT116. Type of assay: cell-based. In a few lines: (§1)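 Growth inhibition, SRB method: 3-day continuous compound exposure for HCT-116, LoVo and MCF-7 and 6-day exposure for BT474. Absorbance at 540 nm reflects surviving cell protein relative to controls.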

The next assay deals with LoVo. The assay can be described thus: Cytotoxicity assay (SRB), LoVo. Type of assay: cell-based. Conditions: LoVo cells, SRB, read-out: In Vitro Cellular Activity IC50 LOVO. In a few lines:
as §1

For the next assay, the system named is BT474. Nature of the assay: Cytotoxicity assay (SRB), BT474. Type of assay: cell-based. In a few lines: as §1
A further assay has as its target T1, cyclin E/CDK2 enzyme (Homo sapiens, UniProt P24941).
T1 construct: made in house; host or cells: Sf9 insect cells, recombinant baculovirus
Nature of the assay: CDK2 ELISA kinase assay (phospho-Rb ser 795 detection). Type of assay: biochemical. As to the method: (§2) • 1. High-binding ELISA microtiter plates (Costar) were coated with 40 μl of the kinase substrate (GST fusion of C-terminal fragment of the retinoblastoma susceptibility gene product) diluted to 10 μg/ml in tris-buffered saline (TBS), overnight at 4° C. • 2. Non-specific binding sites were blocked for 1 hour at 4° C. with Superblock in TBS (Pierce), and the plates rinsed with water. • 3. For the screen, 1.5 μl of test compound (200 μg/ml stock in 20% DMSO/20 mM HEPES, pH 7.5) was added to each well. Final dose of the test compound in the assay was 10 ug/ml. […] The kinase reaction (30 μl) was dispensed into each well. Reactions contained 200 μM ATP, 0.5 mg/ml bovine serum albumin (BSA; Sigma), and 0.5 μl partially purified cyclin D1/cdk 4 enzyme*. The enzyme complex is expressed in insect cells (Sf9) infected with recombinant baculovirus and partially purified using ammonium sulfate fractionation. Reaction volumes were adjusted to 30 μl with kinase assay buffer (50 mM HEPES, pH 7.5, 10 mM MgCl2, 5% glycerol, 10 mM 2-mercaptoethanol). • *: For CDK2 assay, 1.0 μl cyclin E/CDK2 enzyme (diluted 1:1000 in kinase assay buffer) was used. The enzyme is isolated from insect cells (Sf9) infected with recombinant baculovirus and partially purified using ammonium sulfate fractionation. For CDK1 assay, 0.08 μl cyclin B/CDK1 enzyme [New England BioLabs; the enzyme is isolated from insect cells (Sf9) infected with recombinant baculovirus carrying human cdc 2 and human cyclin B] was used.
(§3) […] • 5. Plates were incubated at 30° C. for 1 hour. • 6. The reaction mixture was removed by aspiration and replaced with 250 μl TBS containing 0.1% Tween-20 and 5% nonfat dry milk (blocking buffer). The plates were incubated at 4° C. for 1 hour. • 7. The blocking buffer was removed and replaced with 50 μl of the primary antibody [anti-phospho-Rb ser 795 (New England BioLabs) diluted 1:1000 in blocking buffer]. Incubation was at 4° C. for 16-20 hours. • 8. The wells were rinsed 3 times with 250 μl of TBS containing 0.1% Tween-20 followed by the addition of 50 μl of secondary antibody [anti-rabbit IgG conjugated to horseradish peroxidase (Amersham Life Science) diluted 1:1000 in blocking buffer]. • 9. After a 1 hour incubation at room temperature, the wells were rinsed 3 times with 250 μl of TBS/0.1% Tween 20. • 10. TMB (3,3′,5,5′-tetramethylbenzidine dihydrochloride) substrate solution (100 μl; Pierce) was added to each well and the color development reaction allowed to proceed 5-10 minutes at room temperature with shaking. The reaction was stopped by the addition of 2N sulfuric acid (100 μl) and the absorbance values read at 450 nm in a microplate reader (Molecular Devices). Analysis of Results: • 1. The percentage of the absorbance value in wells containing the test compound relative to control wells (no test agent) was determined. • 2. IC50 values of selected compounds were determined from inhibition curves, after subtracting background values (no substrate).
(In general: In an ELISA, binding on a coated surface is turned into a signal by an enzyme label.)

The target in another assay is T2, cyclin D1/cdk 4 enzyme (Homo sapiens, UniProt P11802).
T2 construct: made in house; host or cells: Sf9 insect cells, recombinant baculovirus
Nature of the assay: CDK4 ELISA kinase assay (phospho-Rb ser 795 detection). In kind it is biochemical. In outline: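 GST-Rb C-terminal fragment coated on plates; partially purified Sf9-expressed cyclin D1/CDK4, cyclin E/CDK2 or cyclin B/CDK1 with 200 μM ATP, pH 7.5 HEPES/MgCl2 buffer, 1 h at 30 °C; screen compound final 10 μg/ml. Phospho-Rb Ser795 detected by antibody ELISA (TMB, A450); % of control, IC50 from background-subtracted inhibition curves.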

A further assay relates to MCF-7. The assay can be described thus: Cytotoxicity assay (SRB), MCF-7. In kind it is cell-based. Conditions: MCF-7 cells, SRB, read-out: In Vitro Cellular Activity IC50 MCF-7. In outline: as §1
Another assay concerns the target T3, cyclin B/CDK1 enzyme (Homo sapiens, UniProt P06493).
T3 construct: purchased New England BioLabs; host or cells: Sf9 insect cells, recombinant baculovirus
The assay can be described thus: CDK1 ELISA kinase assay (phospho-Rb ser 795 detection). In kind it is biochemical. The protocol:
as §2, §3

Where [1] appears, read: Homo sapiens, HCT-116, 72 h, three days.
The mark [2] stands for this setting: Homo sapiens, LoVo, 72 h, three days.
Setting [3] is: Homo sapiens, BT-474, 144 h, BT474 cells, SRB, 6 days; read-out: In Vitro Cellular Activity IC50 BT474.
Where [4] appears, read: In Vitro Enzyme Assays, read-out: CDK2 IC50.
Setting [5] is: In Vitro Enzyme Assays, 200 μM ATP, read-out: CDK4 IC50.
Where [6] appears, read: Homo sapiens, MCF7, 72 h, three days.
Where [7] appears, read: In Vitro Enzyme Assays, read-out: CDK1 IC50.
[8] abbreviates: Homo sapiens, HCT-116, 72 h, 3 days.
Where [9] appears, read: Homo sapiens, LoVo, 72 h, 3 days.
[10] abbreviates: Homo sapiens, BT-474, 144 h, BT474 cells, 6 days, SRB; read-out: In Vitro Cellular Activity IC50 BT474.
Setting [11] is: Homo sapiens, MCF7, 72 h, 3 days.
[12] abbreviates: In Vitro Enzyme Assay, cyclin E/CDK2, read-out: CDK2 IC50.
[13] abbreviates: In Vitro Enzyme Assay, cyclin B/CDK1, read-out: CDK1 IC50.
Setting [14] is: In Vitro Enzyme Assay, cyclin D1/cdk 4, read-out: CDK4 IC50.

T2 sequence (P11802 whole entry, species assumed): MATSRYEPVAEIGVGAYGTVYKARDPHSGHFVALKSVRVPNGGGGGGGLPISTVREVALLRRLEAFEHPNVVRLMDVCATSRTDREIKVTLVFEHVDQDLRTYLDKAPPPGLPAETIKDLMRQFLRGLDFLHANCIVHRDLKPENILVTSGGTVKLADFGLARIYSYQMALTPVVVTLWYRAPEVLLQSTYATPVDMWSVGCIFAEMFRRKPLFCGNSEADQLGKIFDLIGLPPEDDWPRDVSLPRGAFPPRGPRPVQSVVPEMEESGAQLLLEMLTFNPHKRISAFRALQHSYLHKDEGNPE
T2 sequence (P24385 whole entry partner, species assumed): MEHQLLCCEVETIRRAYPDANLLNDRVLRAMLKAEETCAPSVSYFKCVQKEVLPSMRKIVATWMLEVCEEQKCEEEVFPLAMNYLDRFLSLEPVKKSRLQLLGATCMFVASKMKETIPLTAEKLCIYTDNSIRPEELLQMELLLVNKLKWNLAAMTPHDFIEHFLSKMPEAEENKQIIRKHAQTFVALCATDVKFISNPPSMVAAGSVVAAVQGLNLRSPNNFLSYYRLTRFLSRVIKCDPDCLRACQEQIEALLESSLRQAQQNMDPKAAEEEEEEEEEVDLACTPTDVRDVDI
T3 sequence (P06493 whole entry): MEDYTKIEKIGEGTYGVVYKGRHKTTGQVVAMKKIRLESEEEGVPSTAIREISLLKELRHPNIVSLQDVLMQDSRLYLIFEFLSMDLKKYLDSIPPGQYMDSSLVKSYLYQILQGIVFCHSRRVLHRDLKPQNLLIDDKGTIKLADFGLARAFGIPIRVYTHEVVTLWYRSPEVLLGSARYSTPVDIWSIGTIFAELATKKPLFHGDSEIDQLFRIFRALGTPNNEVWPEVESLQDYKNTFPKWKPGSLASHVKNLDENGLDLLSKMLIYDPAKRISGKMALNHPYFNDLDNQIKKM
T3 sequence (P14635 whole entry partner): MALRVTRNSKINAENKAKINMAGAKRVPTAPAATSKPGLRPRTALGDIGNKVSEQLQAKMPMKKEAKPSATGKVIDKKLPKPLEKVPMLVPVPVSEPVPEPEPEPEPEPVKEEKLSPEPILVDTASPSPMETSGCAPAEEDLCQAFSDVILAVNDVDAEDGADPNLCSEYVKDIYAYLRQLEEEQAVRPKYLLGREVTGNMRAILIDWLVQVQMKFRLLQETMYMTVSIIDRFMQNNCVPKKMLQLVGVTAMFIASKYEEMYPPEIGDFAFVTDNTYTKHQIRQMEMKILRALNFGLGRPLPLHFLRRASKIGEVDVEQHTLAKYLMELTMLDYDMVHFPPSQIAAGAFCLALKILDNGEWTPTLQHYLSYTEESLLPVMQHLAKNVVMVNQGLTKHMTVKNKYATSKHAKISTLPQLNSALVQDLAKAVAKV

With `CN1CCN(c2ccc(N/C=C3\C(=O)NC(=O)c4ccc(-c5ccc(C=O)o5)cc43)cc2)CC1` [Example 124, 5-[(4Z)-4-({[4-(4-Methylpiperazin-1-yl)phenyl]amino}methylene)-1,3-dioxo-1,2,3,4-tetrahydroisoquinolin-6-yl]-2-furaldehyde], the IC50 (as a rule, the midpoint of a concentration-inhibition curve) in the assay on HCT-116 (setting [1]) was 2600 nM; in the assay with LoVo (setting [2]), 5000 nM; in the assay with BT474 (setting [3]), 9100 nM; at cyclin E/CDK2 enzyme (setting [4]) it was over 50000 nM; at cyclin D1/cdk 4 enzyme (setting [5]), 360 nM; in the assay with MCF-7 (setting [6]), 7900 nM.
Consider `C=CCOc1ccc(CN/C=C2\C(=O)NC(=O)c3ccc(Br)cc32)cc1O` [Example 149, (4Z)-4-({[4-(Allyloxy)-3-hydroxybenzyl]amino}methylene)-6-bromoisoquinoline-1,3(2H,4H)-dione], for which the half-inhibitory concentration (IC50) is 18000 nM in the assay on HCT-116 (setting [1]); 27000 nM in the assay on LoVo (setting [2]); 12000 nM in the assay on BT474 (setting [3]); over 50000 nM on cyclin B/CDK1 enzyme (setting [7]); 330 nM at cyclin D1/cdk 4 enzyme (setting [5]); over 50000 nM with MCF-7 (setting [6]).
For `O=C1NC(=O)c2ccc(-c3ccoc3)cc2/C1=C/NCc1ccc(OC(F)F)c(O)c1` [Example 199, (4Z)-4-({[4-(Difluoromethoxy)-3-hydroxybenzyl]amino}methylene)-6-(3-furyl)isoquinoline-1,3(2H,4H)-dione], the IC50 is 6400 nM in the assay on HCT-116 (setting [1]); 4100 nM with LoVo (setting [2]); 1300 nM in the assay on BT474 (setting [3]); over 50000 nM on cyclin B/CDK1 enzyme (setting [7]); under 5 nM on cyclin D1/cdk 4 enzyme (setting [5]); 1900 nM in the assay with MCF-7 (setting [6]).
For the compound `CN1CC2CC1CN2c1ccc(NC=C2C(=O)NC(=O)c3ccc(I)cc32)cc1` (stereo not shown) [Example 221, 6-Iodo-4-{[4-(5-methyl-2,5-diaza-bicyclo[2.2.1]hept-2-yl)-phenylamino]-methylene}-4H-isoquinoline-1,3-dione], the IC50 with HCT-116 (setting [1]) is 1900 nM; with LoVo (setting [2]) it was 3200 nM; with BT474 (setting [3]) it was 3200 nM; at cyclin B/CDK1 enzyme (setting [7]), over 50000 nM; on cyclin D1/cdk 4 enzyme (setting [5]), 320 nM; with MCF-7 (setting [6]), 2600 nM.
On to `CN(C)CCNC(=O)C1CCN(c2ccc(N/C=C3\C(=O)NC(=O)c4ccc(I)cc43)cc2)CC1` [Example 433, N-[2-(Dimethylamino)ethyl]-1-(4-{[(Z)-(6-iodo-1,3-dioxo-2,3-dihydroisoquinolin-4(1H)-ylidene)methyl]amino}phenyl)piperidine-4-carboxamide], for which the IC50 was 2000 nM with HCT-116 (setting [8]); 2800 nM in the assay on LoVo (setting [9]); 4500 nM with BT474 (setting [10]); over 50000 nM on cyclin E/CDK2 enzyme (setting [4]); 1200 nM on cyclin D1/cdk 4 enzyme (setting [5]); 3100 nM with MCF-7 (setting [11]).
`O=C1NC(=O)c2ccc(I)cc2/C1=C/NCc1ccc(-c2ccco2)c(O)c1` [Example 505, 4-[(4-Furan-2-yl-3-hydroxy-benzylamino)-methylene]-6-iodo-4H-isoquinoline-1,3-dione]: the 50% inhibitory concentration (IC50) in the assay on HCT-116 (setting [8]) turned out to be 380 nM; with LoVo (setting [9]), 270 nM; with BT474 (setting [10]), 260 nM; at cyclin E/CDK2 enzyme (setting [12]) it was 8400 nM; in the assay on MCF-7 (setting [11]), 700 nM.
The like results for `O=C1NC(=O)c2ccc(I)cc2/C1=C/NCc1ccc(-c2cccnc2)c(O)c1` [Example 515, 4-[(3-Hydroxy-4-pyridin-3-yl-benzylamino)-methylene]-6-iodo-4H-isoquinoline-1,3-dione] were, in that order, 440 nM, 380 nM, 340 nM, 3600 nM and 1100 nM.
As for `O=C1NC(=O)c2ccc(I)cc2/C1=C/NCc1ccn(-c2ccccc2)c(=O)c1` [Example 518, (4Z)-6-Iodo-4-({[(2-oxo-1-phenyl-1,2-dihydropyridin-4-yl)methyl]amino}methylene)isoquinoline-1,3(2H,4H)-dione], the IC50 in the assay with HCT-116 (3 days) was 230 nM; in the assay with LoVo (3 days), 150 nM; in the assay on BT474 (BT474 cells, 6 days, SRB; read-out: In Vitro Cellular Activity IC50 BT474), 80 nM; at cyclin B/CDK1 enzyme (setting [13]), over 50000 nM; on cyclin D1/cdk 4 enzyme (setting [14]) it was 110 nM; in the assay with MCF-7 (3 days), 640 nM.
With `O=C1NC(=O)c2ccc(I)cc2/C1=C/NCc1cc(O)c(-c2ccoc2)cc1F` [Example 520, 4-[(2-Fluoro-4-furan-3-yl-5-hydroxy-benzylamino)-methylene]-6-iodo-4H-isoquinoline-1,3-dione], the IC50 with HCT-116 (setting [8]) worked out at 1200 nM; with LoVo (setting [9]), 900 nM; in the assay on BT474 (setting [10]), 660 nM; on cyclin E/CDK2 enzyme (setting [12]), 12100 nM; on cyclin D1/cdk 4 enzyme (setting [14]), 10 nM; in the assay on MCF-7 (setting [11]), 2200 nM.
As for `Cc1cccc(-c2ccc3c(c2)C(=CNCc2ccc(O)c(O)c2)C(=O)NC3=O)c1` [Example 782, 4-[(3,4-Dihydroxy-benzylamino)-methylene]-6-m-tolyl-4H-isoquinoline-1,3-dione], the IC50 in the assay with HCT-116 (setting [8]) is 15800 nM; with LoVo (setting [9]) it was 15800 nM; in the assay on BT474 (setting [10]), 20300 nM; on cyclin B/CDK1 enzyme (setting [13]) it was over 50000 nM; at cyclin D1/cdk 4 enzyme (setting [14]) it was 2120 nM; in the assay with MCF-7 (setting [11]), 14300 nM.
Regarding `CN1CCN(c2ccc(NC=C3C(=O)NC(=O)c4ccc(-c5ccco5)cc43)cc2)CC1` [Example 830, 6-Furan-2-yl-4-{[4-(4-methyl-piperazin-1-yl)-phenylamino]-methylene}-4H-isoquinoline-1,3-dione], the IC50 was 2700 nM in the assay with HCT-116 (setting [8]); 3600 nM with LoVo (setting [9]); 1200 nM with BT474 (setting [10]); over 50000 nM at cyclin B/CDK1 enzyme (setting [13]); 170 nM on cyclin D1/cdk 4 enzyme (setting [14]); 3300 nM in the assay with MCF-7 (setting [11]).
As for `COc1ccc(CNC=C2C(=O)NC(=O)c3ccc(-c4ccc5ccccc5c4)cc32)cc1O` [Example 834, 4-[(3-Hydroxy-4-methoxy-benzylamino)-methylene]-6-naphthalen-2-yl-4H-isoquinoline-1,3-dione], the IC50 in the assay on HCT-116 (setting [8]) was 29600 nM; in the assay on LoVo (setting [9]) it was 23100 nM; in the assay with BT474 (setting [10]), 13200 nM; at cyclin B/CDK1 enzyme (setting [13]), over 50000 nM; at cyclin D1/cdk 4 enzyme (setting [14]) it was 290 nM; in the assay with MCF-7 (setting [11]) it was 18600 nM.
